Results reported in ChEMBL document CHEMBL1201862, “PubChem BioAssay data set” (2004).
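Step 1: Grow cells in 96-well plates. Step 2: Expose to compound for 48 hours at 5 concentrations. Step 3: Interpolate endpoints linearly; if unreached, use highest concentration. GI50 = concentration required for 50% inhibition of growth.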 Activity calls are given as the source filed them. Cut-off read from the data, not from the text of the source: active = GI50 up to about 1.1 µM and inactive = higher.

What was measured:
Experiment in all cases: growth of human tumour cells (NCI), 48 h
EKVX = system: EKVX
OVCAR-4 = system: OVCAR-4
MOLT-4 = system: MOLT-4
ACHN = system: ACHN
A498 = system: A498
OVCAR-8 = system: OVCAR-8
NCI-H522 = system: NCI-H522
UACC-257 = system: UACC-257
UO-31 = system: UO-31
786-0 = system: 786-0
SF-539 = system: SF-539
SW-620 = system: SW-620
U-251 = system: U-251
NCI-H460 = system: NCI-H460
NCI-H23 = system: NCI-H23
HCT-116 = system: HCT-116
NCI-H226 = system: NCI-H226

Measured: GI50

CCC1(Br)C(=O)NC(=O)N(C2CC(O)C(CO)O2)C1N=[N+]=[N-] (centres undefined)
inactive: EKVX > 100 µM | OVCAR-4 > 100 µM | MOLT-4 > 100 µM | ACHN > 100 µM | A498 > 100 µM | OVCAR-8 > 100 µM | NCI-H522 94.4 µM | UACC-257 83.6 µM | UO-31 > 100 µM | 786-0 > 100 µM | SF-539 > 100 µM | SW-620 > 100 µM | U-251 > 100 µM | NCI-H460 > 100 µM | NCI-H23 56.8 µM

CC(C)(C)CC(C)(C)c1cc2c(O)c(c1)Cc1cc(C(C)(C)CC(C)(C)C)cc(c1O)Cc1cc(C(C)(C)CC(C)(C)C)cc(c1O)Cc1cc(C(C)(C)CC(C)(C)C)cc(c1O)Cc1cc(C(C)(C)CC(C)(C)C)cc(c1O)C2
inactive: EKVX > 100 µM | OVCAR-4 > 100 µM | MOLT-4 > 100 µM | ACHN > 100 µM | OVCAR-8 > 100 µM | NCI-H522 > 100 µM | UACC-257 > 100 µM | UO-31 > 100 µM | 786-0 > 100 µM | HCT-116 > 100 µM | SF-539 > 100 µM | SW-620 > 100 µM | U-251 > 100 µM | NCI-H460 > 100 µM | NCI-H23 > 100 µM

Cc1ccc(C)c(N2C(=O)C(=O)C(c3nc4ccccc4s3)/C(=N/N)C2=O)c1 (centres undefined)
inactive: EKVX > 100 µM | OVCAR-4 > 46.9 µM | MOLT-4 > 100 µM | ACHN > 100 µM | NCI-H522 > 100 µM | UACC-257 > 27.9 µM | UO-31 > 100 µM | 786-0 > 100 µM | HCT-116 > 34.4 µM | NCI-H226 > 100 µM | SF-539 > 100 µM | SW-620 > 100 µM | U-251 > 100 µM | NCI-H460 > 100 µM | NCI-H23 > 80.5 µM

CC[P+]1(CC)CCCC1
inactive: EKVX > 100 µM | OVCAR-4 > 100 µM | MOLT-4 > 100 µM | ACHN > 100 µM | A498 > 10 µM | OVCAR-8 > 100 µM | UACC-257 > 100 µM | UO-31 > 100 µM | 786-0 > 100 µM | SF-539 > 100 µM | SW-620 > 100 µM | U-251 > 100 µM | NCI-H460 > 100 µM | NCI-H23 > 100 µM

C[C@@H](C1CCC2C3C(=CC(=O)[C@@]21C)[C@H](C)[C@]1(CCC(=O)O1)C1OC31)[C@H]1C[C@]2(C)O[C@@](C)(O1)OC2(C)C (some centres undefined)
inactive: EKVX > 100 µM | MOLT-4 > 100 µM | ACHN > 100 µM | A498 > 100 µM | OVCAR-8 > 100 µM | NCI-H522 > 100 µM | UO-31 > 100 µM | 786-0 > 100 µM | HCT-116 > 100 µM | SF-539 > 100 µM | SW-620 > 100 µM | U-251 > 100 µM | NCI-H460 > 100 µM | NCI-H23 > 100 µM

Cc1c(OCCCOc2ccc3c(=O)cc(-c4ccccc4)oc3c2C)ccc2c(=O)cc(-c3ccccc3)oc12
inactive: EKVX > 100 µM | MOLT-4 > 100 µM | A498 > 100 µM | OVCAR-8 > 100 µM | NCI-H522 > 100 µM | UACC-257 > 100 µM | UO-31 > 100 µM | 786-0 > 100 µM | HCT-116 > 100 µM | SF-539 > 100 µM | SW-620 > 100 µM | U-251 > 100 µM | NCI-H460 > 100 µM | NCI-H23 > 100 µM

CC1=CC2C(C=C1)S(=O)(=O)N1CC21c1ccccc1 (centres undefined)
inactive: ACHN > 100 µM | A498 > 100 µM | OVCAR-8 > 100 µM | NCI-H522 > 100 µM | UACC-257 > 100 µM | UO-31 55.1 µM | 786-0 > 100 µM | HCT-116 > 100 µM | SF-539 > 100 µM | SW-620 > 100 µM | U-251 > 100 µM | NCI-H460 > 100 µM | NCI-H23 > 100 µM

CN(C)C=C1C(Cl)=C(C=O)CC(C=O)=C1Cl
inactive: EKVX 22.4 µM | OVCAR-4 14.4 µM | MOLT-4 2.54 µM | ACHN 12.9 µM | OVCAR-8 3.13 µM | NCI-H522 1.86 µM | UACC-257 14.9 µM | UO-31 17.7 µM | 786-0 11.8 µM | SF-539 14.8 µM | SW-620 1.56 µM | U-251 11.4 µM | NCI-H460 20.7 µM | NCI-H23 14.6 µM

COc1nc2c(OC)cccc2c(OC)c1C=O
inactive: EKVX > 100 µM | MOLT-4 61.5 µM | ACHN > 100 µM | OVCAR-8 > 100 µM | NCI-H522 > 100 µM | UACC-257 > 100 µM | UO-31 > 100 µM | 786-0 > 100 µM | HCT-116 76.7 µM | NCI-H226 > 100 µM | SF-539 > 100 µM | SW-620 96.4 µM | U-251 > 100 µM | NCI-H460 > 100 µM | NCI-H23 > 100 µM

Cc1ccc(S(=O)(=O)O/N=C2\CCC\C2=C/c2ccccc2)cc1
inactive: EKVX 19.6 µM | OVCAR-4 23.3 µM | MOLT-4 13 µM | ACHN 11.1 µM | OVCAR-8 29 µM | NCI-H522 18.9 µM | UACC-257 17.1 µM | UO-31 19.9 µM | 786-0 25.4 µM | HCT-116 12.4 µM | NCI-H226 18.5 µM | SF-539 19.9 µM | SW-620 29.6 µM | U-251 31.6 µM | NCI-H460 19.5 µM | NCI-H23 19.4 µM

OCC(O)C(O)c1nn(-c2ccccc2)c2nc3cc(Cl)c(Cl)cc3nc12 (centres undefined)
inactive: EKVX 26.2 µM | OVCAR-4 24.7 µM | MOLT-4 13.7 µM | ACHN 19.5 µM | OVCAR-8 20.4 µM | NCI-H522 26.1 µM | UACC-257 36.7 µM | UO-31 5.98 µM | 786-0 18.8 µM | HCT-116 16.8 µM | NCI-H226 21.4 µM | SF-539 24 µM | SW-620 28.6 µM | U-251 29.1 µM | NCI-H460 27.7 µM | NCI-H23 41.5 µM

Nc1c(Br)c(=O)[nH]c(=O)n1COCCO
inactive: OVCAR-4 > 100 µM | MOLT-4 > 100 µM | ACHN > 100 µM | OVCAR-8 > 100 µM | NCI-H522 > 100 µM | UACC-257 > 100 µM | UO-31 > 100 µM | 786-0 > 100 µM | HCT-116 > 100 µM | SF-539 > 100 µM | SW-620 > 100 µM | U-251 > 100 µM | NCI-H460 > 100 µM | NCI-H23 > 100 µM

O=C1Nc2cccc3ncn(c23)C2=C1CCCC2
inactive: EKVX > 100 µM | MOLT-4 > 100 µM | ACHN > 100 µM | OVCAR-8 > 100 µM | NCI-H522 > 100 µM | UACC-257 > 100 µM | UO-31 > 100 µM | 786-0 > 100 µM | HCT-116 > 100 µM | SF-539 > 100 µM | SW-620 > 100 µM | U-251 > 100 µM | NCI-H460 > 100 µM | NCI-H23 > 100 µM
